The text below walks through data of patent publication US11459312B2, “Sulphur substituted 3-oxo-2,3-dihydropyridazine-4-carboxamides” (Bayer Aktiengesellschaft, priority 2017, dated 2022).

For this experiment, the target named is T1, AHR (Homo sapiens, UniProt P35869).
T1 sequence (P35869 11-848): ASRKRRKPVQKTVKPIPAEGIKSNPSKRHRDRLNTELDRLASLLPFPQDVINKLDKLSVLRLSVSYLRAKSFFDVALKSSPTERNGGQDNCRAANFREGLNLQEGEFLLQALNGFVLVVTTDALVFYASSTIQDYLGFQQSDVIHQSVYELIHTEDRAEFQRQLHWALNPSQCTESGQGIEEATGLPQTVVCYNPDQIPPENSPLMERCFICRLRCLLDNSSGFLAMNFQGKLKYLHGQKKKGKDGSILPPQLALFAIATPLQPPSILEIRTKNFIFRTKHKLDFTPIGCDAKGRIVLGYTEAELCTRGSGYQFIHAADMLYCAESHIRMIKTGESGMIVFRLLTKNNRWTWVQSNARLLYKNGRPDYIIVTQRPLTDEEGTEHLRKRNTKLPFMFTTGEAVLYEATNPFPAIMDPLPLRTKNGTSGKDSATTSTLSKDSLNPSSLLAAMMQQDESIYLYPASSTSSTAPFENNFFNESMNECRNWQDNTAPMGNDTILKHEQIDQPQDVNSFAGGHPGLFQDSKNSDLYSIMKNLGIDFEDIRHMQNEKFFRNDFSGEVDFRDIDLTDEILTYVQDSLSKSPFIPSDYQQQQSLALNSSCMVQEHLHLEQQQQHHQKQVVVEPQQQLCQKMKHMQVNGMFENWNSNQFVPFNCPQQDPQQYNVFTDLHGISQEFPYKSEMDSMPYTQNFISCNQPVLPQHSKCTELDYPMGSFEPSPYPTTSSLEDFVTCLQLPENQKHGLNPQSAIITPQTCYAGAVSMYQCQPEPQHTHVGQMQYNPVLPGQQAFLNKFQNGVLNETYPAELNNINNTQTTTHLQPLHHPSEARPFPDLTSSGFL
The experiment is described as follows: In vitro assay 1: AHR-luc transactivation assay, antagonism in human cell line (U87 glioblastoma cells, kynurenic acid prestimulated). It is filed as cell-based. Also noted: U87 glioblastoma cells (ATCC) endogenously expressing AHR; host or cells: U87 glioblastoma cells, stably transfected with DRE-firefly luciferase and renilla reporter constructs only. The note with it: firefly luciferase DRE reporter, 150 μM kynurenic acid, 20 hours, read-out: Assay 1: AHR-luc Hum Antagonism IC50. Here is the method: Transactivation Assay in Human Cell Line (In Vitro Assays 1 and 2)
Transactivation assays were carried out in U87 glioblastoma cells (ATCC) endogenously expressing AHR. In addition the cells were stably transfected with an AHR inducible firefly luciferase reporter gene construct that carried AHR-binding sites (DRE) in its promoter and a renilla reporter gene construct with constitutively active promoter. Kynurenic acid is an endogenous AHR activating ligand and was used to prestimulate test cells prior to testing the antagonistic properties of compounds.
In Vitro Assay 1: Antagonism in Human Cell Line
Cells in medium (tryptophan free RPMI, 1% FCS, 2 mM Glutamine) supplemented with 150 μM kynurenic acid were grown for 20 hours in absence (negative control) or presence of increasing concentrations of test compounds (typical dilutions: […], 0.25 nmol/L, 0.89 nmol/L; 3.1 nmol/L, 11 nmol/L, 38 nmol/L, 130 nmol/L, 470 nmol/L, 1.6 μmol/L, 5.7 μmol/L and 20 μmol/L in duplicates). As positive inhibition control cells supplemented with 150 μM kynurenic acid were incubated in presence of 5 μM Staurosporin. Normalization was done by positive and negative controls.
Firefly luciferase and Renilla activity was determined by the DualGlo Luciferase Assay System (Promega, #2920). Renilla activity was used to assess toxic effects of compounds.

Turning to `C[C@@H](CS(C)(=O)=O)NC(=O)c1cc(-c2ccc(Cl)cc2)nn(-c2cccc(F)c2)c1=O` [Example 2, 6-(4-Chlorophenyl)-2-(3-fluorophenyl)-N-[(2S)-1-(methylsulfonyl)propan-2-yl]-3-oxo-2,3-dihydropyridazine-4-carboxamide], the IC50 was 147 nM.

For `Cn1cc(-n2nc(-c3ccc(C(F)(F)F)cc3)cc(C(=O)N[C@@H]3C[S+]([O-])C[C@@H]3O)c2=O)cn1` (relative stereo) [Example 32, N-[(cis)-4-hydroxy-1-oxidotetrahydro-thiophen-3-yl]-2-(1-methyl-1H-pyrazol-4-yl)-3-oxo-6-[4-(trifluoromethyl)phenyl]-2,3-dihydropyridazine-4-carboxamide], the IC50 was 41.6 nM.

On to `C[C@@H](C[S+](C)[O-])NC(=O)c1cc(-c2ccc(Cl)cc2)nn(-c2cccc(F)c2)c1=O` (single isomer, unassigned) [Example 4], for which the IC50 was found to be 40.2 nM.

In the case of `Cn1cc(-n2nc(-c3ccc(C(F)(F)F)cc3)cc(C(=O)N[C@@H]3CS(=N)(=O)C[C@@H]3O)c2=O)cn1` (stereo partly drawn) [Example 47, N-[(cis)-4-hydroxy-1-imino-1-oxidotetrahydro-1H-1lambda4-thiophen-3-yl]-2-(1-methyl-1H-pyrazol-4-yl)-3-oxo-6-[4-(trifluoromethyl)phenyl]-2,3-dihydropyridazine-4-carboxamide], the IC50 was determined as 158 nM.

`O=C(N[C@@H]1C[S+]([O-])C[C@@H]1O)c1cc(-c2ccc(Cl)cc2)nn(-c2cccc(F)c2)c1=O` (single isomer, unassigned; (-)) [Example 30, (−)-6-(4-chlorophenyl)-2-(3-fluorophenyl)-N-[(cis)-4-hydroxy-1-oxidotetrahydro-thiophen-3-yl]-3-oxo-2,3-dihydropyridazine-4-carboxamide]: the IC50 worked out at 210 nM.

Consider `N=S1(=O)C[C@H](O)[C@H](NC(=O)c2cc(-c3ccc(Cl)cc3)nn(-c3cccc(F)c3)c2=O)C1` (stereo partly drawn) [Example 42, 6-(4-chlorophenyl)-2-(3-fluorophenyl)-N-[(cis)-4-hydroxy-1-imino-1-oxidotetrahydro-1H-1lambda4-thiophen-3-yl]-3-oxo-2,3-dihydropyridazine-4-carboxamide], for which the IC50 was 34.9 nM.

For `O=C(N[C@@H]1CS(=O)(=O)C[C@@H]1O)c1cc(-c2ccc(C(F)(F)F)cc2)nn(-c2cnsc2)c1=O` (single isomer, unassigned) [Example 11, (−)-N-[(cis)-4-hydroxy-1,1-dioxidotetrahydro-thiophen-3-yl]-3-oxo-2-(1,2-thiazol-4-yl)-6-[4-(trifluoromethyl)phenyl]-2,3-dihydropyridazine-4-carboxamide], the IC50 came out at 3.46 nM.

As for `C[C@@H](C[S+](C)[O-])NC(=O)c1cc(-c2ccc(C(F)(F)F)cc2)nn(-c2cnn(C)c2)c1=O` (mixture of isomers) [Example 23, 2-(1-Methyl-1H-pyrazol-4-yl)-N-[(2S)-1-(methylsulfinyl)propan-2-yl]-3-oxo-6-[4-(trifluoromethyl)phenyl]-2,3-dihydropyridazine-4-carboxamide], the IC50 was 5.37 nM.

As for `CSC[C@H](C)NC(=O)c1cc(-c2ccc(C(F)(F)F)cc2)nn(-c2cnn(C)c2)c1=O` [Example 9, 2-(1-Methyl-1H-pyrazol-4-yl)-N-[(2S)-1-(methylsulfanyl)propan-2-yl]-3-oxo-6-[4-(trifluoromethyl)phenyl]-2,3-dihydropyridazine-4-carboxamide], the IC50 amounted to 6.99 nM.

As to `C[C@@H](CS(C)(=N)=O)NC(=O)c1cc(-c2ccc(Cl)cc2)nn(-c2cccc(F)c2)c1=O` (mixture of isomers) [Example 6, 6-(4-Chlorophenyl)-2-(3-fluorophenyl)-N-[(2S)-1-(S-methylsulfonimidoyl)propan-2-yl]-3-oxo-2,3-di hydropyridazine-4-carboxamide], the IC50 came to 232 nM.
